Measured values reported in patent publication US8461199B2, “Transition metal complexes of a bis[thio-hydrazide amide] compound” (Synta Pharmaceuticals Corp., priority 2008, dated 2013).

Legend:
[1] = system: stage IV metastatic melanoma; settings: in combination with paclitaxel, relative to patients treated with paclitaxel alone; cited from earlier work
M14 melanoma cells = test: Cytotoxicity in confluent M14 cells, cell viability by CCK8 assay; assay type: cell-based; settings: Homo sapiens, 48 h incubation, 0.25% DMSO, n=4
Description: M14 melanoma cells were seeded at 50,000 cells per well of 96-well plate in 100 μl of Dulbecco's minimum essential medium (DMEM) supplemented with 10% fetal bovine serum. Cells were cultured at 37° C. under 5% CO2-95% air. After 16 hours of incubation, the test compound was added to the cell culture. The compound was first diluted in 100% dimethyl sulfoxide (DMSO) at 400-fold of the final concentrations actually used in the assay. The DMSO solution was next diluted 20 fold with the culture medium, and then finally added to the assay wells at another 20-fold dilution. Assay medium included the test compound with concentrations as indicated with 0.25% DMSO. Cell viability was measured with a CCK8 assay (as described in the Technical Manual for Cell Counting Kit-8, Product #CK04-11, CK04-13 and CK04-20, Dojindo Molecular Technologies, Inc. MD, Tantular, I. S., et al. Tropical Medicine and International Health, 8(6), 569-574, 2003) in the last 15 minutes after a 48 h incubation with the test compound. Each bar of the figure expresses average percent inhibition against vehicle (0.25% DMSO) control (n=4).

CN(NC(=O)CC(=O)NN(C)C(=S)c1ccccc1)C(=S)c1ccccc1 [compound A, N-malonyl-bis(N′-methyl-N′-thiobenzoylhydrazide)]
time to progression [1]: increase the time to progression
IC50 (M14 melanoma cells): > 12.5 µM
